Measured values from patent publication US10799464B2, “Delivery systems” (Textile-Based Delivery, Inc., priority 2014, dated 2020).

Key:
[1] = typical topical cream, depending on the severity of pain; cited from earlier work
[2] = Release test on fabric swatches after washing or dyeing (retention of active), absorbance at 280 nm; assay type: physicochemical
Experimental: This Example provides exemplary release tests on fabrics from yarns of the disclosure. These release measurements were performed on small swatches of fabric produced from yarn of the disclosure, and washed or otherwise stressed before release testing. Release was used to quantify how much active is retained intact after the stress. No coating was necessary for this test. Retention of active through stresses such as washes and scouring is a key distinguishing benefit of yarns of this disclosure and enables medicated fabrics that can be applied in a wide range of applications that demand washability in order to be commercially viable.
(§1) Aspirin (acetylsalicylic acid) was ground to a fine powder and dispersed at 25% wt/wt in Novagard 200-260. This was imbibed into a texturized 70 Denier nylon yarn, then plied with a textured 70 Denier nylon yarn. The yarn was then knitted into several sleeves.
Washing with hot detergent water was then done once (on swatch #2), 5 times (swatch #3), or 10 times (swatch #4). Swatch #1 was the control with zero washings. Each swatch, a fixed 1-inch square, was placed in water for release, and after two days the absorbance measured at 280 nanometers.
Another sleeve was dyed using a standard dyeing process, which included scouring at the upper limit of the normal range of temperatures in dyeing, namely 220° F. for 45 minutes. […] Over 50% potency was retained through this intense process.

[3] = Informal wear test of aspirin sleeve; assay type: in vivo; conditions: sleeve worn on the elbow or knee
Source text: as §1

[4] = Franz cell transdermal delivery test
Experimental: This was then tested in a Franz cell apparatus (Zyleris Pharmatech) for its ability to deliver the active (arecoline) transdermally.
The test article, in this case the aforementioned arecoline-loaded fabric, was placed atop a small piece of freshly excised skin, in this case from a pig's ear; below the skin was a reservoir containing bovine serum albumin buffer to simulate blood plasma. In order to reach the reservoir, the active had to diffuse transdermally across the layer of skin. Three such Franz cells were used so that the experiment was done in triplicate. A small aliquot was drawn from each reservoir at the 24-hour point and tested for arecoline as now described.
A reference arecoline solution was prepared by dissolving approximately 3 milligrams arecoline hydrobromide (ScienceLab.com) in approximately 0.5 milliliters of bovine serum albumin buffer, for an approximate concentration of about 6 milligrams/milliliter. The reference solution was spotted alongside all three samples (labelled R7, R8 and R9) on a TLC plate at the origin. After driving out the water from the spots with heat, the spotted TLC plate was allowed to cool, then developed in 100% methanol inside a developing tank. […]

[5] = Use testing of allantoin-loaded yarn; assay type: in vivo; conditions: 25% in RTV imbibed into 40 Denier texturized nylon yarn
Source text: Allantoin, which is frequently used as an active in skin creams, was dispersed in RTV at 25%, and this matrix imbibed into a 40 Denier texturized nylon yarn. Some of this was plied with a 40 Denier nylon yarn. Another portion was air-covered with a spandex yarn.

COc1cc(CNC(=O)CCCC/C=C/C(C)C)ccc1O [capsaicin]
effective daily dose for relief in the foot, ankle, and calf [1]: 0.5 to 6 mg

CC(=O)Oc1ccccc1C(=O)O [Aspirin, acetylsalicylic acid]
Absorbance (at 280 nm) ([2]; 1 wash with hot detergent water, 1-inch square swatch in water, two days): 0.077
Absorbance (at 280 nm) ([2]; 5 washes with hot detergent water, 1-inch square swatch in water, two days): 0.038
Absorbance (at 280 nm) ([2]; 10 washes with hot detergent water, 1-inch square swatch in water, two days): 0.045
Absorbance (at 280 nm) ([2]; Control (0 washes), 1-inch square swatch in water, two days): 0.097
Absorbance (at 280 nm) ([2]; Dyed (scouring at 220° F. for 45 minutes)): 0.051
retention of the active ([2]; after 10 washings): about 45%
potency retained ([2]; after standard dyeing process, scouring 220° F. for 45 minutes): Over 50%
analgesia (in words) [3]: significant analgesia

COC(=O)C1=CCCN(C)C1 [arecoline]
concentration of arecoline in the reservoirs ([4]; 24-hour point, uncoated fabric of polyester yarn imbibed with 10% arecoline hydrobromide in Novagard 200-260, TLC spot intensity vs reference): ~5 milligrams/milliliters
transdermal delivery (in words) ([4]; pig ear skin Franz cell model, imbibed yarn): effective

NC(=O)NC1NC(=O)NC1=O (stereo not drawn) [Allantoin]
skin effect (in words) [5]: skin-soothing, softening effect
